Target: T1, human P2X4 (Homo sapiens, UniProt Q99571)
T1 construct: expressed in transfected cells
T1 sequence (Q99571 1-388): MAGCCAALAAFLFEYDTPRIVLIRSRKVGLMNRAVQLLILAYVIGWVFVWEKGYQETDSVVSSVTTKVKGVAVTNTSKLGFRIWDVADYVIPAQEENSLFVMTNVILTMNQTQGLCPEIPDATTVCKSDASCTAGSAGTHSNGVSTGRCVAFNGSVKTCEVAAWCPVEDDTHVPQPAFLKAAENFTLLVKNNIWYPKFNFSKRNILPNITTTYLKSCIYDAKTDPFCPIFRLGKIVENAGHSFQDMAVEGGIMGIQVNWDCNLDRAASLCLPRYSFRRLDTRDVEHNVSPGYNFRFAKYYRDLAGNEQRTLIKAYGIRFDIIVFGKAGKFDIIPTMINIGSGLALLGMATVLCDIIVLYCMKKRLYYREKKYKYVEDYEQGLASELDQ
Experiment: Human P2X4 HEK Cell FLIPR Assay
Assay type: cell-based
Conditions: HEK293 stably expressing human P2X4, agonist Bz-ATP 3 μM (EC80); for IC50: read-out: Human P2X4 HEK Cells (FLIPR Assay) avg IC50
Protocol: Compounds were tested on a HEK293 cell line stably expressing human P2X4. Cells were cultured on poly-D-lysine-coated 384-well plates at a density of 15,000 cells/well and incubated overnight at 37° C., 5% CO2. P2X4 function was assessed by measuring intracellular calcium fluxes caused by Benzoylbenzoyl-ATP (Bz-ATP) using the calcium-chelating dye Fluo8-AM (Molecular Devices) with the Fluorescent Imaging Plate Reader Tetra (FLIPR^Tetra; Molecular Devices CA). On the day of the assay, the medium was removed and the cells were incubated for 30 min at 37° C. and 5% CO2 in 30 μl of dye buffer (Hank's balanced salt solution, 10 mM HEPES, 1.8 mM CaCl2, 1 mM MgCl2, 2 mM probenecid, 5 mM D-glucose monohydrate, 5 μM Fluo8-AM, pH=7.4). Compounds diluted in probenecid buffer (Hank's balanced salt solution, 10 mM HEPES, 1.8 mM CaCl2, 1 mM MgCl2, 2 mM probenecid, 5 mM D-glucose monohydrate, pH=7.4) at ten concentrations ranging from 25 μM to 1 nM (final concentration) were dispensed and incubated for 30 min at room temperature. […] The final assay volume was 50 μl and final DMSO concentration was 0.5%.
The fluorescence intensity reflecting intracellular calcium changes was recorded before and after Bz-ATP addition, at an excitation and emission wavelengths of 470-495 nm and 515-575 nm respectively.
The compounds were tested in triplicates and fluorescence intensity raw data normalized to the agonist control and fitted to the four-parameter logistic equation:
Y=Bottom+(Top−Bottom)/(1+10^((Log IC50−X)*HillSlope))
Assay plate acceptance was based on the signal window (S/B)[…] and the reference compound pIC50 within ±3σ the mean of historic pIC50 of the compound. Failure to meet two of the three criteria determined exclusion of the plate's results.

In the case of CC(=O)N(c1ccc(C#N)c(C(F)(F)F)c1)c1cc(NC(=O)Cc2cccc(F)c2Cl)ccn1 [Example 11, N-{4-[2-(2-chloro-3-fluorophenyl)acetamido]pyridin-2-yl}-N-[4-cyano-3-(trifluoromethyl)phenyl]acetamide], the “Human P2X4 HEK Cells (FLIPR Assay) avg Efficacy” value (“Human P2X4 HEK Cells” for short) is reported as 100%.

For CC(=O)N(c1ccc(F)c(F)c1)c1cc(NC(=O)Cc2c(F)cccc2Cl)cnn1 [Example 203, N-{5-[2-(2-chloro-6-fluorophenyl)acetamido]pyridazin-3-yl}-N-(3,4-difluorophenyl)acetamide], the “Human P2X4 HEK Cells” value was 86% and the IC50 was 737 nM.

CCc1cc(Cl)c(CC(=O)Nc2ccnc(N(C(C)=O)c3ccc(F)c(F)c3)c2)c(Cl)c1 [Example 75, N-{4-[2-(2,6-dichloro-4-ethylphenyl)acetamido]pyridin-2-yl}-N-(3,4-difluorophenyl)acetamide] was tested, and the “Human P2X4 HEK Cells” value was 96% and the IC50 was 919 nM.

CC(=O)N(c1ccc(S(C)(=O)=O)c(Cl)c1)c1cc(NC(=O)Cc2c(F)cccc2Cl)ccn1 [Example 158, N-{4-[2-(2-Chlor-6-fluorphenyl)acetamido]pyridin-2-yl}-N-[3-chlor-4-(methylsulfonyl)phenyl]acetamide] was tested, and the “Human P2X4 HEK Cells” value was 97% and the IC50 was 649 nM.

CC(=O)N(c1cc(NC(=O)Cc2c(F)cccc2Cl)ccn1)c1ccc(F)cc1Cl [Example 153, N-(2-Chlor-4-fluorphenyl)-N-{4-[2-(2-chlor-6-fluorphenyl)acetamido]pyridin-2-yl}acetamide] was tested, and the “Human P2X4 HEK Cells” value was 102% and the IC50 was 476 nM.

With CC(=O)N(c1ccc(S(C)(=O)=O)c(Cl)c1)c1cc(NC(=O)Cc2cccc(F)c2Cl)ccn1 [Example 156, N-{4-[2-(2-Chlor-3-fluorphenyl)acetamido]pyridin-2-yl}-N-[3-chlor-4-(methylsulfonyl)phenyl]acetamide] the “Human P2X4 HEK Cells” value was 96% and the IC50 was 512 nM.

For CC(=O)N(c1ccc(F)cc1)c1cc(NC(=O)Cc2cccc(F)c2Cl)cnn1 [Example 191, N-{5-[2-(2-chloro-3-fluorophenyl)acetamido]pyridazin-3-yl}-N-(4-fluorophenyl)acetamide], the “Human P2X4 HEK Cells” value was 92% and the IC50 was 739 nM.

CC(=O)N(c1cc(NC(=O)Cc2c(Cl)cccc2Cl)ccn1)c1cccc(F)c1F [Example 125, N-{4-[2-(2,6-dichlorophenyl)acetamido]pyridin-2-yl}-N-(2,3-difluorophenyl)acetamide] was tested, and the “Human P2X4 HEK Cells” value was 95% and the IC50 was 577 nM.

For CC(=O)N(c1cc(F)cc(Cl)c1)c1cc(NC(=O)Cc2ccc(F)cc2Cl)ccn1 [Example 137, N-(3-chloro-5-fluorophenyl)-N-{4-[2-(2-chloro-4-fluorophenyl)acetamido]pyridin-2-yl)acetamide], the “Human P2X4 HEK Cells” value was 104% and the IC50 was 290 nM.

With CC(=O)N(c1cc(NC(=O)Cc2cccc(F)c2Cl)ccn1)c1ccc(C(F)(F)F)cc1F [Example 119, N-{4-[2-(2-chloro-3-fluorophenyl)acetamido]pyridin-2-yl}-N-[2-fluoro-4-(trifluoromethyl)phenyl]acetamide] the “Human P2X4 HEK Cells” value was 101% and the IC50 was 941 nM.

In the case of CC(=O)N(c1ccc(Cl)c(C#N)c1)c1cc(NC(=O)Cc2c(Cl)cccc2Cl)ccn1 [Example 19, N-(4-chloro-3-cyanophenyl)-N-{4-[2-(2,6-dichlorophenyl)acetamido]pyridin-2-yl}acetamide], the “Human P2X4 HEK Cells” value is reported as 103% and the IC50 is reported as 542 nM.

In the case of CC(=O)N(c1ccc(F)cc1)c1cc(NC(=O)Cc2c(Cl)cccc2Cl)cnn1 [Example 193, N-{5-[2-(2,6-dichlorophenyl)acetamido]pyridazin-3-yl}-N-(4-fluorophenyl)acetamide], the “Human P2X4 HEK Cells” value is reported as 93% and the IC50 is reported as 868 nM.

For CC(=O)N(c1cc(C)cc(C#N)c1)c1cc(NC(=O)Cc2c(Cl)cccc2Cl)ccn1 [Example 176, N-(3-Cyan-5-methylphenyl)-N-{4-[2-(2,6-dichlorphenyl)acetamido]pyridin-2-yl}acetamide], the “Human P2X4 HEK Cells” value was 101% and the IC50 was 567 nM.

CC(=O)N(c1cc(NC(=O)Cc2c(Cl)cccc2Cl)ccn1)c1ccc(C(F)(F)F)cc1F [Example 120, N-{4-[2-(2,6-dichlorophenyl)acetamido]pyridin-2-yl}-N-[2-fluoro-4-(trifluoromethyl)phenyl]acetamide] was tested, and the “Human P2X4 HEK Cells” value was 102% and the IC50 was 871 nM.

In the case of CC(=O)N(c1cc(NC(=O)Cc2c(Cl)cccc2Cl)ccn1)c1ccc(C)cc1C [Example 173, N-{4-[2-(2,6-Dichlorphenyl)acetamido]pyridin-2-yl}-N-(2,4-dimethylphenyl)acetamide], the “Human P2X4 HEK Cells” value is reported as 104% and the IC50 is reported as 526 nM.

For CC(=O)N(c1cccc(F)c1)c1cc(NC(=O)Cc2cccc(F)c2Cl)cnn1 [Example 195, N-{5-[2-(2-chloro-3-fluorophenyl)acetamido]pyridazin-3-yl}-N-(3-fluorophenyl)acetamide], the “Human P2X4 HEK Cells” value was 95% and the IC50 was 486 nM.

In the case of CC(=O)N(c1cccc(F)c1)c1cc(NC(=O)Cc2ccc(F)cc2Cl)cnn1 [Example 198, N-{5-[2-(2-chloro-4-fluorophenyl)acetamido]pyridazin-3-yl}-N-(3-fluorophenyl)acetamide], the “Human P2X4 HEK Cells” value is reported as 96% and the IC50 is reported as 943 nM.

CC(=O)N(c1ccc(OC(F)F)cc1)c1cc(NC(=O)Cc2c(Cl)cccc2Cl)ccn1 [Example 49, N-{4-[2-(2,6-dichlorophenyl)acetamido]pyridin-2-yl}-N-[4-(difluoromethoxy)phenyl]acetamide] was tested, and the “Human P2X4 HEK Cells” value was 100% and the IC50 was 520 nM.

In the case of CC(=O)N(c1cc(NC(=O)Cc2c(F)cccc2Cl)ccn1)c1ccc(C)cc1C [Example 172, N-{4-[2-(2-Chlor-6-fluorphenyl)acetamido]pyridin-2-yl}-N-(2,4-dimethylphenyl)acetamide], the “Human P2X4 HEK Cells” value is reported as 104% and the IC50 is reported as 520 nM.

In the case of CC(=O)N(c1ccc(C)c(Cl)c1)c1cc(NC(=O)Cc2c(Cl)cccc2Cl)ccn1 [Example 182, N-(3-Chlor-4-methylphenyl)-N-{4-[2-(2,6-dichlorphenyl)acetamido]pyridin-2-yl}acetamide], the “Human P2X4 HEK Cells” value is reported as 102% and the IC50 is reported as 593 nM.

CC(=O)N(c1ccc(F)cc1)c1cc(NC(=O)Cc2c(F)cccc2Cl)cnn1 [Example 189, N-{5-[2-(2-chloro-6-fluorophenyl)acetamido]pyridazin-3-yl}-N-(4-fluorophenyl)acetamide] was tested, and the “Human P2X4 HEK Cells” value was 93% and the IC50 was 654 nM.

CC(=O)N(c1cc(NC(=O)Cc2cccc(C(F)(F)F)c2Cl)ccn1)c1cccc(F)c1F [Example 121, N-(4-{2-[2-chloro-3-(trifluoromethyl)phenyl]acetamido}pyridin-2-yl)-N-(2,3-difluorophenyl)acetamide] was tested, and the “Human P2X4 HEK Cells” value was 97% and the IC50 was 843 nM.

In the case of CC(=O)N(c1cc(F)cc(Cl)c1)c1cc(NC(=O)Cc2c(Cl)cccc2Cl)ccn1 [Example 139, N-(3-chloro-5-fluorophenyl)-N-{4-[2-(2,6-dichlorophenyl)acetamido]pyridin-2-yl}acetamide], the “Human P2X4 HEK Cells” value is reported as 100% and the IC50 is reported as 356 nM.

With CC(=O)N(c1cc(NC(=O)Cc2ccccc2Cl)ccn1)c1cccc(F)c1F [Example 122, N-{4-[2-(2-chlorophenyl)acetamido]pyridin-2-yl}-N-(2,3-difluorophenyl)acetamide] the “Human P2X4 HEK Cells” value was 95% and the IC50 was 357 nM.

For CC(=O)N(c1cc(F)cc(F)c1)c1cc(NC(=O)Cc2cccc(F)c2Cl)cnn1 [Example 206, N-{5-[2-(2-chloro-3-fluorophenyl)acetamido]pyridazin-3-yl}-N-(3,5-difluorophenyl)acetamide], the “Human P2X4 HEK Cells” value was 93% and the IC50 was 449 nM.

For COc1cc(F)cc(N(C(C)=O)c2cc(NC(=O)Cc3cccc(F)c3Cl)ccn2)c1 [Example 160, N-{4-[2-(2-Chlor-3-fluorphenyl)acetamido]pyridin-2-yl}-N-(3-fluor-5-methoxyphenyl)acetamide], the “Human P2X4 HEK Cells” value was 101% and the IC50 was 383 nM.

From patent US20230257351A1, “SUBSTITUTED N-[…] HAVING P2X4 RECEPTOR ANTAGONISTIC ACTIVITY” (Bayer Aktiengesellschaft, priority 2020, published 2023)
